Experimental data published in patent publication EP4806443A1, “ANTICANCER AGENT KIT” (Nihon Trim Co., Ltd., priority 2023, dated 2025).

Legend:
Type in all cases: cell-based, Human
[1] = system: HeLa cells expressing a GFP-LC3-RFP-LC3ΔG probe; assay: Autophagic activity based on GFP/RFP ratio (flow cytometry), HeLa
Description: Then, the cells were detached and suspended, and the fluorescence intensities of GFP and RFP were analyzed by flow cytometry. The autophagic activity was quantitatively analyzed by determining the GFP/RFP ratio.
A1-containing filtered-water medium) containing 200 nM Baf.
The GFP-LC3-RFP-LC3ΔG probe (or a GFP-LC3-RFP probe described later) is described in, for example, the following paper. The GFP-LC3-RFP-LC3ΔG probe (or GFP-LC3-RFP probe) is cleaved by ATG4, and the same number of GFP-LC3 and RFP-LC3ΔG (or RFP) are produced in the cytoplasm. GFP-LC3 is localized in the autophagosomes, and then quenched and degraded in the autolysosomes. RFP-LC3ΔG (or RFP) remains in the cytoplasm and serves as an internal control reflecting the amount of GFP-LC3. The GFP/RFP ratio is obtained by quantifying the cumulative amount of degradation of GFP-LC3 by autophagy. A decrease in the GFP/RFP ratio indicates autophagy activation. An increase in the GFP/RFP ratio indicates autophagy inhibition. […]
(§1) Then, the cells were detached and suspended in the same manner as described in the section (2-3), and the fluorescence intensities of GFP and RFP were analyzed by flow cytometry. The autophagic activity was quantitatively analyzed by determining the GFP/RFP ratio.

[2] = system: HeLa cells in which ATG7 (autophagy-related gene) was knocked out (ATG7 KO); assay: Cell growth inhibitory effect (Cell Counting Kit-8), HeLa ATG7 KO; conditions: 24 hours
Description: The results are shown in FIGS. 8 (ATG7 WT) and 9 (ATG7 KO).
FIGS. 20 and 21 show the results.
In FIGS. 20 and 21, HW represents DMEM (produced hydrogen water medium) containing produced hydrogen water with a dissolved hydrogen concentration of 0 ppm to 4 ppm, and HW + DOX represents the DMEM (produced hydrogen water medium) to which 0.5 µM doxorubicin was added.
The results are shown in FIGS. 26 (ATG7 WT) and 27 (ATG7 KO).

[3] = system: HCT116 cells expressing the GFP-LC3-RFP probe; assay: Autophagic activity based on GFP/RFP ratio (flow cytometry), HCT116; conditions: fluorouracil 1 or 10 µM, 24 hours (FIG. 25)
Description: as §1

[4] = system: HeLa cells in which ATG7 was knocked out (ATG7 KO); assay: Apoptosis induction (Cell Death Detection […]), HeLa ATG7 KO; conditions: doxorubicin 1 or 2 µM, 24 hours; ATG7 KO compared with ATG7 WT (FIG. 7)
Description: Apoptosis induction was assessed using Cell Death Detection [sequence] (Roche Diagnostics, Basel, Switzerland) according to the manual. HeLa cells (ATG7 WT) or HeLa cells in which ATG7 was knocked out (ATG7 KO) were seeded into a 12-well plate at 1.0 × 10^5 cells/well and cultured (precultured) in DMEM under the conditions of 37°C and 5% CO2 for 24 hours. After the preculture, the medium was exchanged with DMEM supplemented with an anticancer agent containing doxorubicin at a predetermined concentration (1 or 2 µM), and the cells were cultured for 24 hours. The cells were then lysed with a lysis buffer, and the lysate was added to each well of the ELISA plate, incubated with an immunological reagent buffer containing anti-histone biotin and anti-DNA POD for 2 hours, and washed with an incubation buffer. Then, the resultant was reacted with 100 µL of an ABTS substrate buffer, and the absorbance was measured at 405 nm and 490 nm.
Apoptosis induction was assessed using Cell Death Detection [sequence] (Roche Diagnostics, Basel, Switzerland) according to the manual. […] Then, the resultant was reacted with 100 µL of an ABTS substrate buffer, and the absorbance was measured at 405 nm and 490 nm.

[5] = system: Caco-2 cells; assay: Cell growth inhibitory effect (Cell Counting Kit-8), Caco-2; conditions: doxorubicin 1, 2, or 4 µM in serum-free medium (autophagy activating conditions), 24 hours (FIG. 12)
Description: FIGS. 12 to 15 show the results.
In FIG. 12, DOX + serum free represents DMEM with no serum (serum-free medium) to which doxorubicin was added at a predetermined concentration (1, 2, or 4 µM), DOX represents serum-containing DMEM with doxorubicin added at a predetermined concentration, and DOX + Baf. represents a medium (Baf. A1-containing medium) containing 200 nM Bafilomycin A1 (Baf. A1) dissolved in serum-containing DMEM, to which doxorubicin was added at the predetermined concentration.
In FIG. 15, FW (Medium + Baf. A1) represents a medium (Baf. A1-containing filtered-water medium) containing 200 nM Baf.

`CC(=O)O[C@H]1C(=O)[C@@]2(C)[C@H]([C@H](OC(=O)c3ccccc3)[C@]3(O)C[C@H](OC(=O)[C@H](O)[C@@H](NC(=O)c4ccccc4)c4ccccc4)C(C)=C1C3(C)C)[C@]1(OC(C)=O)CO[C@@H]1C[C@@H]2O` [paclitaxel] was tested, and the GFP/RFP ratio ([1]; paclitaxel 1, 5, or 10 nM, 24 hours (FIG. 23)) was “decreased as the paclitaxel concentration increased” and the “anticancer effect (cell growth inhibitory effect)” value ([2]; paclitaxel 1, 10, or 50 nM, ATG7 KO compared with ATG7 WT (FIG. 24)) was “enhanced”.
For `O=c1[nH]cc(F)c(=O)[nH]1` [fluorouracil], the GFP/RFP ratio [3] was “decreased as the fluorouracil concentration increased”.
`COc1cccc2c1C(=O)c1c(O)c3c(c(O)c1C2=O)C[C@@](O)(C(=O)CO)C[C@@H]3O[C@H]1C[C@H](N)[C@H](O)[C@H](C)O1` [doxorubicin] was tested, and the GFP/RFP ratio ([1]; doxorubicin 1, 2, or 4 µM, 4 hours, a decrease indicates autophagy activation (FIG. 5)) was “decreased as the doxorubicin concentration increased”, the “cell growth inhibitory effect” value ([2]; doxorubicin 1, 2, or 4 µM, ATG7 KO compared with ATG7 WT (FIG. 6)) was “enhanced” and the apoptosis induction [4] was “enhanced”. For the same compound, the “cell growth inhibitory effect of doxorubicin” value [5] was “rather reduced”.
